Assay results: ChEMBL document CHEMBL1201862, “PubChem BioAssay data set” (2004)
Active and inactive are the calls of the source.

Columns and labels:
[1] = HPDE-C7 pancreatic duct cell viability loss – fluorescence, HTS (AID 430); type: functional, cell-based; conditions: Homo sapiens
[2] = viability loss of HPDE-C7K cells – cell-based, fluorescence, HTS, primary screen (AID 431); type: functional; conditions: Homo sapiens
Leucine aminopeptidase = Leucine aminopeptidase (Plasmodium falciparum 3D7, UniProt Q8IL11); test: P. falciparum M17LAP inhibitors, primary screen, biochemical, fluorogenic H-Leu-NHMec substrate, 1536-well (AID 1619); type: functional
Chain of Leucine aminopeptidase (Q8IL11 whole entry): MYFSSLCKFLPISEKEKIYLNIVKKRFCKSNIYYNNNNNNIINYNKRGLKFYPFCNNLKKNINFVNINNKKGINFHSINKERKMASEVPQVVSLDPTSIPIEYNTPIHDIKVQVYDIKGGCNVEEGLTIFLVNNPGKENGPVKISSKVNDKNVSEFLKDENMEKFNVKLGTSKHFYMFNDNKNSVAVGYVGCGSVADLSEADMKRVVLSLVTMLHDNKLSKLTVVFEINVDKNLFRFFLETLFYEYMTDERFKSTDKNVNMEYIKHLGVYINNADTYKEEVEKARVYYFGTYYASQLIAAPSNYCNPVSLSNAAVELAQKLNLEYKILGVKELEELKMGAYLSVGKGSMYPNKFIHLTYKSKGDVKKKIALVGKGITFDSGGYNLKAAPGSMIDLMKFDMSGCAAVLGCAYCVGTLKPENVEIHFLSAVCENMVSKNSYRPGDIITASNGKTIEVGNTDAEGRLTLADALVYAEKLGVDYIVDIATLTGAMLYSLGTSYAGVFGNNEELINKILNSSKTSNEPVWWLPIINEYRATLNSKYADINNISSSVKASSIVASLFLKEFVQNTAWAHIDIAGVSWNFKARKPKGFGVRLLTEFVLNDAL

Large T antigen = Large T antigen (Simian virus 40, UniProt P03070); type: functional, Betapolyomavirus macacae;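 also: Confirmatory-stage PubChem screen for compounds that inhibit SV40 T antigen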
Chain of Large T antigen (P03070 whole entry): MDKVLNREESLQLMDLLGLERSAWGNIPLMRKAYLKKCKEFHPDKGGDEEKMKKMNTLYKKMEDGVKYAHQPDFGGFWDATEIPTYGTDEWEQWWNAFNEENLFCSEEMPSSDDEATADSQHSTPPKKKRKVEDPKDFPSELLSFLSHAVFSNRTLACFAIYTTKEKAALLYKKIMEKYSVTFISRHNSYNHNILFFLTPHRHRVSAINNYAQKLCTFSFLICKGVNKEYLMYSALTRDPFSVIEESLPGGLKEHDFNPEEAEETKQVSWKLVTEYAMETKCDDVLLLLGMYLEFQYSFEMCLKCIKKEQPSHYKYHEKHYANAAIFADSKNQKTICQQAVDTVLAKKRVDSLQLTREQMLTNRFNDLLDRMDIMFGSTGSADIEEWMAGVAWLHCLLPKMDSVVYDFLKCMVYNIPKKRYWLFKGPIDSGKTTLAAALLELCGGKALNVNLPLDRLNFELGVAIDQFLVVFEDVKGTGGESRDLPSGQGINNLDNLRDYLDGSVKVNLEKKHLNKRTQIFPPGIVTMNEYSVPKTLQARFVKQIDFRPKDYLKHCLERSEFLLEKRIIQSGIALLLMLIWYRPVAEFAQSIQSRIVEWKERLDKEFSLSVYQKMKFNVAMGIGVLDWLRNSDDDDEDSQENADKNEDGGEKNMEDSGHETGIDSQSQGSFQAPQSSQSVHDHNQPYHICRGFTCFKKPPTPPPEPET

[3] = biological target: Induced myeloid leukemia cell differentiation protein Mcl-1 (Homo sapiens, UniProt Q07820); test: blockers of MCL1 binding to BIM peptide – biochemical, fluorescence polarization, BIM-BH3 peptide, 1536-well, dose response (AID 2217)
Chain of Induced myeloid leukemia cell differentiation protein Mcl-1 (Q07820 whole entry): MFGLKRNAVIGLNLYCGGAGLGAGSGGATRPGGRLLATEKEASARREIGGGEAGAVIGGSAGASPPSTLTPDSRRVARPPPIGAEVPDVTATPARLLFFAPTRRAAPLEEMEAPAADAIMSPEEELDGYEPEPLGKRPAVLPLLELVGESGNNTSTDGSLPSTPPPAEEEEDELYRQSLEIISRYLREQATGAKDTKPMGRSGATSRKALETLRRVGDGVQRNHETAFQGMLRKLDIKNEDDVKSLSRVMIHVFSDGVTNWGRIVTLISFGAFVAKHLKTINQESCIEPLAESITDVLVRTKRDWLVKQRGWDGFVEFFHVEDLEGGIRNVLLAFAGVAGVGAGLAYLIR

Estrogen receptor beta [4] = biological target: T1, Estrogen receptor beta (Homo sapiens, UniProt Q92731); test: blockers of SRC-3 recruitment to ERβ – biochemical, ELISA, streptavidin-HRP readout, orthogonal assay, confirmation (AID 1060)
T1 sequence (Q92731 whole entry): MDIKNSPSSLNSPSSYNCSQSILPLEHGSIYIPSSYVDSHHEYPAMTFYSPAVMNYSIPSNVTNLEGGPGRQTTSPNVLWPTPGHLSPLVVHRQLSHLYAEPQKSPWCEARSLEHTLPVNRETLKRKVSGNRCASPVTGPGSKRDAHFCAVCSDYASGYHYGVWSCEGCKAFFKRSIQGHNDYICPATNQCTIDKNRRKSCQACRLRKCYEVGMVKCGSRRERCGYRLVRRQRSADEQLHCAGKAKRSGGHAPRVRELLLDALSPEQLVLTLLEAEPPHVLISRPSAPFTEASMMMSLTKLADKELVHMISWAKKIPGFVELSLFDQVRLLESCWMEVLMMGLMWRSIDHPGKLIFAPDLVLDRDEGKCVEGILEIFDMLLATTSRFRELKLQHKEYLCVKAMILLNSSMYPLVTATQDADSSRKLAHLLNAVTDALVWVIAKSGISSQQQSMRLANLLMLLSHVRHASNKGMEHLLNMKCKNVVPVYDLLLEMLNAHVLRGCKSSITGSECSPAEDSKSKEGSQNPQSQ

Bcl-2-like protein 1 = Bcl-2-like protein 1 (Homo sapiens, UniProt Q07817); test: blockers of BCLXL peptide binding – biochemical, fluorescence polarization, 1536-well, selectivity assay for MCL1 inhibitor project, dose response (AID 2218)
Chain of Bcl-2-like protein 1 (Q07817 whole entry): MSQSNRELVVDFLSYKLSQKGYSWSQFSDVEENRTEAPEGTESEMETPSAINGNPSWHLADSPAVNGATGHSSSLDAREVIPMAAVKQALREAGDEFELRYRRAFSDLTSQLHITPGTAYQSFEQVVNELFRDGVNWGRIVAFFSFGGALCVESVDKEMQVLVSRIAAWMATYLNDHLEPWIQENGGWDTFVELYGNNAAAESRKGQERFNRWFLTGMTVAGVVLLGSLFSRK

[5] = biological target: T2, Dual specificity protein phosphatase 6 (Rattus norvegicus, UniProt Q64346); test: inhibition of rat DUSP6 enzyme activity – biochemical, in vitro, primary screen (AID 425)
T2 sequence (Q64346 whole entry): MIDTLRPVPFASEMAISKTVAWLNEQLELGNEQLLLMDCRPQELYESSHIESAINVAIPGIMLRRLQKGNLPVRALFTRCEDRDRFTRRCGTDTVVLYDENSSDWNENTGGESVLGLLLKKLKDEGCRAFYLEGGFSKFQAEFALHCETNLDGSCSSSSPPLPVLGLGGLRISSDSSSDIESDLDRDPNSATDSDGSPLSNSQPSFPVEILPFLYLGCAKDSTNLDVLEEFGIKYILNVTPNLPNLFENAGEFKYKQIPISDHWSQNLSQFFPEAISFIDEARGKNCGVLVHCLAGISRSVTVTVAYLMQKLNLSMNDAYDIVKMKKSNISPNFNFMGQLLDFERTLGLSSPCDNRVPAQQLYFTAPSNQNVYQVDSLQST

Bcl-2-related protein A1 = biological target: T3, Bcl-2-related protein A1 (Mus musculus, UniProt Q07440); type: functional;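 also: confirmatory dose–response counterscreen on Bfl-1, used to check hits from a UBC13 polyubiquitin inhibitor campaign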
T3 sequence (Q07440 whole entry): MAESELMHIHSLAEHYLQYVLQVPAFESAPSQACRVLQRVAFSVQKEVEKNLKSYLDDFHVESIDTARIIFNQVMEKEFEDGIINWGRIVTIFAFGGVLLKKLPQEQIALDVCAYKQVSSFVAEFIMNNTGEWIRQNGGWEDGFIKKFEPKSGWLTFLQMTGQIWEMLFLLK

[6] = biological target: T4, Ubiquitin-conjugating enzyme E2 N (Homo sapiens, UniProt P61088); type: functional
T4 sequence (P61088 whole entry): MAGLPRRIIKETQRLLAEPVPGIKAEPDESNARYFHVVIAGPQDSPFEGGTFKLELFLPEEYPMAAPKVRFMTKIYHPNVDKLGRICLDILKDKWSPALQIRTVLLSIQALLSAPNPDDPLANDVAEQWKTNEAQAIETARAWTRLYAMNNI

[7] = biological target: T4, Ubiquitin-conjugating enzyme E2 N; type: functional; remark: listed apart in the source
[8] = biological target: T5, Histone-lysine N-methyltransferase NSD2 (Homo sapiens, UniProt O96028); type: biochemical
T5 sequence (O96028 whole entry): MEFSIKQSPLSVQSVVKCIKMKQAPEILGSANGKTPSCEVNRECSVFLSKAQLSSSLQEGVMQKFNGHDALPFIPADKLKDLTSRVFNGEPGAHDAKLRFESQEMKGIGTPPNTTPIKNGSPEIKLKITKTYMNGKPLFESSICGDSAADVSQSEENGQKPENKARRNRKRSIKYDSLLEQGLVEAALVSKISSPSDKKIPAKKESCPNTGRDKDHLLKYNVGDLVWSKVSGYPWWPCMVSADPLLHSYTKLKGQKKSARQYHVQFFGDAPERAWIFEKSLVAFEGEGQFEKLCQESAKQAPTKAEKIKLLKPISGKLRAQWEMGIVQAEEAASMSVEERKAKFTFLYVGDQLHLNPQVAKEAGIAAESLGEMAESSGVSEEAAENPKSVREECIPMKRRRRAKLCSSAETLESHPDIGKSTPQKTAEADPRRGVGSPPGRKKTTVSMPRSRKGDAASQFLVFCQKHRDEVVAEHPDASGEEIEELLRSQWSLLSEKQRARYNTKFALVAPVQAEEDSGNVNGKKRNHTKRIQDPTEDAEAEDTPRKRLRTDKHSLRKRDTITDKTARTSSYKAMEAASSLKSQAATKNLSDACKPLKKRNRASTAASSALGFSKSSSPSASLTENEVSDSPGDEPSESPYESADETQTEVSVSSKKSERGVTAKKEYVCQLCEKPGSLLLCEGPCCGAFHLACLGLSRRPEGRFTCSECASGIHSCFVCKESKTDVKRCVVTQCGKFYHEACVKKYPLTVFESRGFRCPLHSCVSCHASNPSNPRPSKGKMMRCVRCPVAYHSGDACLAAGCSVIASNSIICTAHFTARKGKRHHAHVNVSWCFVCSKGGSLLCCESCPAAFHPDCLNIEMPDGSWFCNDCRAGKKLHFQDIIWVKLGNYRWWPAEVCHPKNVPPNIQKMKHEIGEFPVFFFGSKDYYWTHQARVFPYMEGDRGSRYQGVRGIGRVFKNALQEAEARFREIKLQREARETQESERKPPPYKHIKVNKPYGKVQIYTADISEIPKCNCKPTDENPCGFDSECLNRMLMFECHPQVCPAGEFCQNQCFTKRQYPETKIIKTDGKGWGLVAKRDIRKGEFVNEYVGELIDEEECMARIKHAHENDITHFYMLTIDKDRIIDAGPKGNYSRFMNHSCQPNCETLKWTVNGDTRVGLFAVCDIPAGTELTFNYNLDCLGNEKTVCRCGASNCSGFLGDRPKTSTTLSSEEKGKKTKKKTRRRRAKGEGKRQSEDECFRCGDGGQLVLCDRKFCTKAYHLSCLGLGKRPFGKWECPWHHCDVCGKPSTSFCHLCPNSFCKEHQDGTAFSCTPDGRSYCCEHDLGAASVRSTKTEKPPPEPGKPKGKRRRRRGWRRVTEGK

Estrogen receptor = biological target: T6, Estrogen receptor (Homo sapiens, UniProt P03372);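 also: potency for inhibiting coactivator peptide recruitment to the receptor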
T6 sequence (P03372 whole entry): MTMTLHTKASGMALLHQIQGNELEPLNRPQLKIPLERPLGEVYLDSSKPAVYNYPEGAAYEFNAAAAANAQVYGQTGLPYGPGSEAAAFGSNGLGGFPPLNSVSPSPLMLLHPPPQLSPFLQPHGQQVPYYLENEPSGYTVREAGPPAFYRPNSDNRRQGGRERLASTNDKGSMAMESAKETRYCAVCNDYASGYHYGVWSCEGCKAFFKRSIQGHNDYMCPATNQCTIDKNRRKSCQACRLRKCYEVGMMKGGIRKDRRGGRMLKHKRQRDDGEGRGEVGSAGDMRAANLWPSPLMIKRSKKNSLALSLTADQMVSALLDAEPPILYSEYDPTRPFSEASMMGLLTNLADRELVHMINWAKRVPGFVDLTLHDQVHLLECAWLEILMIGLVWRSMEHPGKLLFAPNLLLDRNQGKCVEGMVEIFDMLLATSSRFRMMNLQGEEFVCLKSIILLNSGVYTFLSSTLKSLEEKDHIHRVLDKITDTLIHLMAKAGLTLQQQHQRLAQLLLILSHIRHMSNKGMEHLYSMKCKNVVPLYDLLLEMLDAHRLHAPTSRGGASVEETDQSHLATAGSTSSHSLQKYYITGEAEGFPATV

Estrogen receptor beta [9] = biological target: T1, Estrogen receptor beta
[10] = biological target: T7, Carboxy-terminal domain RNA polymerase II polypeptide A small phosphatase 1 (Homo sapiens, UniProt Q9GZU7); test: CTDSP1 inhibitors, concentration-response, biochemical, absorbance readout, ultra-high-throughput screen actives (AID 540297); type: functional
T7 sequence (Q9GZU7 whole entry): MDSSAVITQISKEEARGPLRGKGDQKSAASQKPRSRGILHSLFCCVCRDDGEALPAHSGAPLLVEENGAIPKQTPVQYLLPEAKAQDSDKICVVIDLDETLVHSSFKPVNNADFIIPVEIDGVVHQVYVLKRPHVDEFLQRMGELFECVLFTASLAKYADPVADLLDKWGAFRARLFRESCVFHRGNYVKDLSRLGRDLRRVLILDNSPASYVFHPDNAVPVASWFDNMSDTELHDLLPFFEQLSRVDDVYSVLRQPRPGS

[11] = biological target: T8, Mannose-6-phosphate isomerase (Homo sapiens, UniProt P34949); test: MPI inhibition at elevated mannose 6-phosphate – biochemical, fluorescence intensity, high mannose 6-phosphate, primary screen (AID 1220)
T8 sequence (P34949 whole entry): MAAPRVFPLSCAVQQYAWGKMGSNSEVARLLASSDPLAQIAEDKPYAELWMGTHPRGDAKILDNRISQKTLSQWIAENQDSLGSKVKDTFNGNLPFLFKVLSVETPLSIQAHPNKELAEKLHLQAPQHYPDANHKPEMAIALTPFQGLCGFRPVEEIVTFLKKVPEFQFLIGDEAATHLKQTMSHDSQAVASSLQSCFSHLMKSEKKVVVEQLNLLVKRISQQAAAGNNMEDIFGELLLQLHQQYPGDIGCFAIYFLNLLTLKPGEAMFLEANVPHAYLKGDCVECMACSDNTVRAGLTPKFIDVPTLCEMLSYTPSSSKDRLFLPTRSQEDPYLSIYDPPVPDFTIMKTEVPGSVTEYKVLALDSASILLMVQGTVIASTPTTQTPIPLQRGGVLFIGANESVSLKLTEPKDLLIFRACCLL

[12] = biological target: Glucose-6-phosphate 1-dehydrogenase (Homo sapiens, UniProt P11413); test: inhibition of Homo sapiens G6PD, dose series – biochemical, fluorescence, selectivity assay for P. falciparum G6PD inhibitor project, dose response (AID 504792); type: functional
Chain of Glucose-6-phosphate 1-dehydrogenase (P11413 whole entry): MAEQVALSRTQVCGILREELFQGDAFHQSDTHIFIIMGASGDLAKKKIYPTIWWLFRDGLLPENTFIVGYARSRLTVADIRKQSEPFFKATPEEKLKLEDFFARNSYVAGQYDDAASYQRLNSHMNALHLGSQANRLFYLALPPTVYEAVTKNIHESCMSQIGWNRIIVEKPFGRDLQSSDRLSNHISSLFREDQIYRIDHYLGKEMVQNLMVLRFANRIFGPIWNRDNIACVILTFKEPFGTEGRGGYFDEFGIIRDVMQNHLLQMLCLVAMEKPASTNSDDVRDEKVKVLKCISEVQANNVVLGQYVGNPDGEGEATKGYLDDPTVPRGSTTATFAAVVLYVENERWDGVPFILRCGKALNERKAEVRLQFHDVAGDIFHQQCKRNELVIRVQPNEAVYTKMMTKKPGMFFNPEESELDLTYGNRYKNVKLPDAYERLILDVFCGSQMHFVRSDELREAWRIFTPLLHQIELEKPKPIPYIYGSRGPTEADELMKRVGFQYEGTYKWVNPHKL

Genome polyprotein = Genome polyprotein (dengue virus type 2, UniProt P29990); test: flavivirus cap methylation enzyme inhibition – biochemical, confirmation dose response, primary screen (AID 588689); type: functional
Chain of Genome polyprotein (P29990 2492-3391 limits assumed): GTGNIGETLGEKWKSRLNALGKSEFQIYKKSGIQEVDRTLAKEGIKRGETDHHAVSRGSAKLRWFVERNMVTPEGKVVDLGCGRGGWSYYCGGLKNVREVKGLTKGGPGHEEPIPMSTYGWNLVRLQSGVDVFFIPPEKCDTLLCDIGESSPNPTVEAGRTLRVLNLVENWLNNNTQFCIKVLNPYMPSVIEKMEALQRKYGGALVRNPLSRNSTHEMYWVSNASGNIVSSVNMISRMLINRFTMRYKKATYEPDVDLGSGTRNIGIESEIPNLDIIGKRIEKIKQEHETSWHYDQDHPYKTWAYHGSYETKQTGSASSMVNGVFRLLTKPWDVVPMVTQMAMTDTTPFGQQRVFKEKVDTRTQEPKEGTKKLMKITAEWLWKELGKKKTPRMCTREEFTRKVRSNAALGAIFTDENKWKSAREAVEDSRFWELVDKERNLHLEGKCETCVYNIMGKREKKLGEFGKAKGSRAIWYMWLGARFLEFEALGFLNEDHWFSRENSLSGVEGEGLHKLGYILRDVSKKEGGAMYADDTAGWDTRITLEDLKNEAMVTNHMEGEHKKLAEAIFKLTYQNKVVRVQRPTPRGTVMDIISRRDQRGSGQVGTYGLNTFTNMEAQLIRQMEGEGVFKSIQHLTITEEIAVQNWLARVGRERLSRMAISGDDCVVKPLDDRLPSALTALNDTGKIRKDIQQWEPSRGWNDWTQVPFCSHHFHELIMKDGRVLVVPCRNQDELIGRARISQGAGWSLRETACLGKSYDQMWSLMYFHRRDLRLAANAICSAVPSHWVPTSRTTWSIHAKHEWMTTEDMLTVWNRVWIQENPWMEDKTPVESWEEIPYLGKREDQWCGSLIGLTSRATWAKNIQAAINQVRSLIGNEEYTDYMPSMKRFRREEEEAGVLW

Albumin = Albumin (Bos taurus, UniProt P02769); test: Counterscreen for inhibitors of T-cell receptor (TCR)-CD3 interaction: Fluorescence-based biochemical high throughput dose response assay to identify inhibitors of T-cell receptor (TCR)-CD3 interaction using a TAMRA-labeled BSA probe.; type: functional
Chain of Albumin (P02769 whole entry): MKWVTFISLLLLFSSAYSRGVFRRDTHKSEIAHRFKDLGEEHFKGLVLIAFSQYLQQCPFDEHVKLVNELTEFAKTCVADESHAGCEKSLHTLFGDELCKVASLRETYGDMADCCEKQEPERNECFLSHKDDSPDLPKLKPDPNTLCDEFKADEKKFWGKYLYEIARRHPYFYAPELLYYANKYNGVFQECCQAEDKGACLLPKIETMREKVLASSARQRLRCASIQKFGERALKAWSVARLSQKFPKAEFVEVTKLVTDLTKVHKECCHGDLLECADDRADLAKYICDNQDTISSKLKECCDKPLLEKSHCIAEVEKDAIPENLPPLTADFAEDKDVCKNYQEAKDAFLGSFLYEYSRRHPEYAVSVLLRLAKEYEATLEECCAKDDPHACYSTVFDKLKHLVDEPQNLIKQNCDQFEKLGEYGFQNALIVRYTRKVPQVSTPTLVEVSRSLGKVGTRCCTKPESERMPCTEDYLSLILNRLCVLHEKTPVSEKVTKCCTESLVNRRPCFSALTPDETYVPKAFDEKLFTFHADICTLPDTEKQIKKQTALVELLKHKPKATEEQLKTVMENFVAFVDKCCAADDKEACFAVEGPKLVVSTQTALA

[13] = Luminescence Cell-Based Dose Confirmation HTS to Identify Inhibitors of Polyadenylation.; type: functional
[14] = biological target: Intestinal-type alkaline phosphatase (Mus musculus, UniProt P24822); test: PubChem AID 488785; type: functional
Chain of Intestinal-type alkaline phosphatase (Mus musculus, UniProt P24822) (P24822 whole entry): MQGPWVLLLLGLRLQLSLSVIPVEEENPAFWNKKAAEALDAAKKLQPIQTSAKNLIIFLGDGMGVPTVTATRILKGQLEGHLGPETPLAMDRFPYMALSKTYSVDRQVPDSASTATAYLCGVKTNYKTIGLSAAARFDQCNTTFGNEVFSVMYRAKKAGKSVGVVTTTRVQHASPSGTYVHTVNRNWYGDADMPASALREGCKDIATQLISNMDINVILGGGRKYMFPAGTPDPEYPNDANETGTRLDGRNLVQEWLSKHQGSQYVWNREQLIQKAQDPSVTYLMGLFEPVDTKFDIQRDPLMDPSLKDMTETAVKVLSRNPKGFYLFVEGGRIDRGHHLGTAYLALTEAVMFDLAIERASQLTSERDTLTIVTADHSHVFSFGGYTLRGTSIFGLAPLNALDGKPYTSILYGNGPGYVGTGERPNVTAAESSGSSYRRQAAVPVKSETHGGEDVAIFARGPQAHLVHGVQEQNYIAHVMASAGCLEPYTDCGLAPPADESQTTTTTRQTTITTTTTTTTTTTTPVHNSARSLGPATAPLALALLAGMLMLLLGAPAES

[15] = biological target: T9, Alkaline phosphatase, tissue-nonspecific isozyme (Homo sapiens, UniProt P05186); test: TNAP enzyme inhibition by screening hits, dose response, selectivity assay for mouse IAP inhibitor project, biochemical, human TNAP, uHTS hits (AID 488906); type: functional
T9 sequence (P05186 whole entry): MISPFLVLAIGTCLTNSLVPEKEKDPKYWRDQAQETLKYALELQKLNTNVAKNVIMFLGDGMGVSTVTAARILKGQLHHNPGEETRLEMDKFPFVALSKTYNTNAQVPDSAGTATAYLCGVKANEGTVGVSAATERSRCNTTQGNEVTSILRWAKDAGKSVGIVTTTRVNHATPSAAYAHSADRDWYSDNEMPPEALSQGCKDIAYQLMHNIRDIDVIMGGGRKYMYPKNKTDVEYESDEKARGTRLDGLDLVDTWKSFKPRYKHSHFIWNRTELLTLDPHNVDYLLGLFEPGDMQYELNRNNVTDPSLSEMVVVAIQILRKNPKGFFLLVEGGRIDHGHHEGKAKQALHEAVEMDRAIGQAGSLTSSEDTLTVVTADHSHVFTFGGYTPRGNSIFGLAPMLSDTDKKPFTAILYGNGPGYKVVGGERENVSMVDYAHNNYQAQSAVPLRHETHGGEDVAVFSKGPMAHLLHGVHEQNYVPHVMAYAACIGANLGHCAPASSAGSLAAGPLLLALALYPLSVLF

[16] = biological target: Intestinal-type alkaline phosphatase (Homo sapiens, UniProt P09923); test: inhibition of human intestinal alkaline phosphatase – biochemical, dose response (AID 488876); type: functional

Cc1ccc2nc(-c3cccc(NC(=O)c4ccc5c(c4)OCCO5)c3)oc2c1
EC50 [1]: 6.12 µM (active) | EC50 [2]: 6.12 µM (active)

CCCCc1ccc(C(=O)NC(C(=O)O)C(C)C)cc1 (stereo unspecified)
IC50 (Leucine aminopeptidase): 4.71 µM (active)

c1coc(-c2nc(-c3ccco3)c(-c3ccco3)nc2-c2ccco2)c1
IC50 (Large T antigen): 76.4 µM (active) | IC50 [3]: > 1.34 µM (active) | IC50 (Estrogen receptor beta [4]): > 50 µM (not active) | IC50 (Bcl-2-like protein 1): > 109 µM (not active) | IC50 [5]: > 10 µM (not active) | IC50 (Bcl-2-related protein A1): 0.36 µM (active) | IC50 [6]: 3.79 µM (active) | IC50 [7]: 8.49 µM (active) | AC50 [8]: > 20 µM (inactive)

Cc1ccc(C(=O)Nc2cccc(C(=O)NCc3ccccc3)c2)o1
EC50 [1]: 16.6 µM (active) | EC50 [2]: 12.4 µM (active)

CC1CCN(S(=O)(=O)c2ccc(NC(=O)Cc3cccs3)cc2)CC1
IC50 (Estrogen receptor): 9.49 µM (active) | IC50 (Estrogen receptor beta [9]): 5.52 µM (active) | IC50 (Estrogen receptor beta [4]): 0.127 µM (not active) | IC50 [10]: 3.87 µM (active)

O=C(CCc1ccc(S(=O)(=O)N2CCOCC2)cc1)N/N=C/c1ccc(O)c(O)c1O
IC50 [3]: 2.33 µM (active) | IC50 (Bcl-2-like protein 1): > 109 µM (not active) | IC50 [11]: 16.4 µM (active) | IC50 [12]: 48.7 µM (inactive) | IC50 (Genome polyprotein): 51.3 µM (active) | IC50 (Albumin): > 94.1 µM (inactive)

O=C(COC(=O)Cc1ccc(S(=O)(=O)N2CCOCC2)s1)NCc1ccccc1
EC50 [13]: 39.8 µM (active)

CN(c1ccccc1C(=O)O)S(=O)(=O)c1ccc2c3c(cccc13)C(=O)N2
IC50 (Estrogen receptor): 18.7 µM (active) | IC50 (Estrogen receptor beta [9]): 3.85 µM (active) | IC50 (Estrogen receptor beta [4]): 6.16 µM (not active) | IC50 [14]: 11.3 µM (active) | IC50 [15]: > 100 µM (inactive) | IC50 [16]: > 100 µM (inactive)
